Consider 60 compounds from BindingDB's records for doi:10.7270/Q2BR8QM3 (Nmmlsc, 2008).

In the assay the target is T1, Bcl-2-like protein 2 (Homo sapiens, UniProt Q92843).
T1 sequence (Q92843 whole entry): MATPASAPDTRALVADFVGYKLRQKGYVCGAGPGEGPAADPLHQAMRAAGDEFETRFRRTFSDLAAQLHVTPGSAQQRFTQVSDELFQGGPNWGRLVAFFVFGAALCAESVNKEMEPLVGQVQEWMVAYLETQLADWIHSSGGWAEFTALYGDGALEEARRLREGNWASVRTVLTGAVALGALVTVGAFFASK
In words: Bcl-W/Bim binding regulators – biochemical, multiplexed, bead-based flow cytometry, fluorescence, dose response (AID 1330).

Setting [1] is: inactive by the depositor's call.

As usually defined, the EC50 is the concentration needed to bring the measured effect to its halfway point. Higher therefore signals a need for much substance. Turning to `COc1cc(/C=C2\CC/C(=C\c3cc(OC)c(O)c(OC)c3)C2=O)cc(OC)c1O` [(2E,5E)-2,5-bis[(4-hydroxy-3,5-dimethoxyphenyl)methylidene]cyclopentan-1-one], the EC50 amounted to 3.31 µM.

Regarding `O=C(NC1=C(Nc2ccc(Cl)cc2)C(=O)c2ccccc2C1=O)c1ccccc1`, the EC50 under setting [1] is 10.1 µM.

`CCN(CC)c1ccc(-c2nn3c(-c4cccnc4)nnc3s2)cc1` returned an EC50 under setting [1] of 12 µM.

The compound `COc1ccc2nc(-c3ccco3)c(-c3ccco3)nc2c1` [2,3-di-2-furyl-6-methoxyquinoxaline] showed an EC50 under setting [1] of 28.3 µM.

For `Fc1ccc(C2=Nc3cccc4cccc(c34)N2)cc1` [MLS000687139], the half-maximal effective concentration (EC50) under setting [1] was determined as 9.76 µM.

Under setting [1], `COc1cc(CNc2ccc(N3CCCC3)cc2)cc(Cl)c1OC` [N-[(3-chloranyl-4,5-dimethoxy-phenyl)methyl]-4-pyrrolidin-1-yl-aniline] showed an EC50 of 3.72 µM.

Compound `CCOc1ccccc1CNc1ccc(O)cc1` gave an EC50 under setting [1] of 2.31 µM.

Regarding `c1ccc(Nc2cccc(Nc3ccccc3)n2)cc1` [N,N'-diphenyl-2,6-pyridinediamine], a half-maximal response (EC50) required 2.58 µM.

In the case of `O=S1(=O)N=C(N(CCO)N=C/C=C/c2ccccc2)c2ccccc21`, the half-maximal effective concentration (EC50) under setting [1] is 20.6 µM.

`c1ccc(-c2nc(N3CCCCCC3)c3ccccc3n2)nc1` [SMR000046752]: the EC50 under setting [1] was 21.7 µM.

`COc1cccc(CN=Nc2nn3cnnc3c3ccccc23)c1O` had a concentration for a half-maximal effect (EC50) of 0.49 µM.

Regarding `COCCCNc1nc(S)nc2cc(OC)c(OC)cc12` [SMR000026607], under setting [1], the response was half-maximal at 3.68 µM (EC50).

As to `COc1cc2nc(=S)[nH]c(NCCc3ccc(S(N)(=O)=O)cc3)c2cc1OC` [MLS000674601], under setting [1], a half-maximal response (EC50) required 0.67 µM.

Under setting [1], `COc1ccc(OC)c(-n2c(=O)c3ccccc3c3ccccc3c2=O)c1` [SMR000236434] registered an EC50 of 18 µM.

`O=C1c2ccccc2-c2onc3ccc(N4CCCC4)c1c23` [SMR000279741]: under setting [1], it took 10.9 µM to reach a half-maximal effect (EC50).

On to `O=C(Nc1cccc(Cl)c1)Nc1ccnc(-c2cccnc2)n1` [SMR000337179], for which the 50% effective concentration (EC50) under setting [1] was determined as 1.59 µM.

The compound `CCOC(=O)c1c(O)nc2ccc(Cl)c3c2c1-c1ccccc1C3=O` [MLS000704595] displayed an EC50 under setting [1] of 6.14 µM.

`Nc1c(C(=O)NC2CC2)sc2nc3c(c(-c4ccco4)c12)CC/C3=C/c1ccco1` [SMR000259554] showed an EC50 of 2.6 µM.

`Cc1ccc(/C=C/C(=O)c2ccccc(=O)c2O)cc1C` [MLS000756172] displayed an EC50 under setting [1] of 27.9 µM.

Under setting [1], `CCc1ccc(/C=C/C(=O)c2cc(Br)ccc(=O)c2O)cc1` [5-bromo-3-[(E)-3-(4-ethylphenyl)-1-oxoprop-2-enyl]-2-hydroxy-1-cyclohepta-2,4,6-trienone] displayed a concentration giving a half-maximal response (EC50) of 52.1 µM.

Take `Cc1nnc2ccc(-c3cccc(NC(=O)c4ccco4)c3)nn12` [SMR000324305]: the EC50 turned out to be 7.89 µM.

For `Cc1ccc(NC2=C(NC(=O)c3ccccc3)C(=O)c3ccccc3C2=O)cc1Cl` [MLS000392290], under setting [1], the EC50 was found to be 4.34 µM.

`Cc1ccc(-c2ccc(/C=C/C(=O)c3ccccc3)o2)cc1` had a concentration giving a half-maximal response (EC50) under setting [1] of 3.56 µM.

Compound `Cc1ccc(C)c(/C=C/C(=O)c2ccccc(=O)c2O)c1` yielded a half-maximal effective concentration (EC50) under setting [1] of 8.51 µM.

In turn, `O=C(Nc1cccc(C(F)(F)F)c1)c1ccc2nc(-c3ccco3)c(-c3ccco3)nc2c1` [SMR000142217] showed a concentration giving a half-maximal response (EC50) of 9.02 µM.

On to `CC(=O)NC1=C(NC2CCS(=O)(=O)C2)C(=O)c2ccccc2C1=O` (stereo not given) [N-[3-[(1,1-dioxothiolan-3-yl)amino]-1,4-dioxonaphthalen-2-yl]acetamide], for which the 50% effective concentration (EC50) under setting [1] is 3.49 µM.

In turn, `CN(N=Cc1ccncc1)C1=NS(=O)(=O)c2ccccc21` [isonicotinaldehyde (1,1-dioxido-1,2-benzisothiazol-3-yl)(methyl)hydrazone] came in with an EC50 under setting [1] of 2.73 µM.

For the compound `O=C(Nc1ccccc1)c1ccc2nc(-c3ccco3)c(-c3ccco3)nc2c1` [2,3-di-2-furyl-N-phenyl-6-quinoxalinecarboxamide], the midpoint of the response under setting [1], the EC50, lay at 18.2 µM.

With `CCOC(=O)c1nc(Nc2ccc(C(=O)OC)cc2)c2ccccc2n1` [ethyl 4-(4-methoxycarbonylanilino)quinazoline-2-carboxylate], the concentration giving a half-maximal response (EC50) under setting [1] was determined as 16.7 µM.

`O=C(Nc1ccc2nc(-c3ccco3)c(-c3ccco3)nc2c1)NC1CC1` [SMR000118524] registered a concentration giving a half-maximal response (EC50) under setting [1] of 16.4 µM.

The compound `CCN1C(=O)/C(=C/C=C2\C=CN(CC)c3ccccc32)SC1=S` had an EC50 under setting [1] of 15.9 µM.

Turning to `COc1ccccc1NC1=C(NC(C)=O)C(=O)c2ccccc2C1=O` [N-[3-(2-methoxyanilino)-1,4-dioxonaphthalen-2-yl]acetamide], the EC50 under setting [1] is 4 µM.

On to `CCOc1cccc(CNc2ccc(O)cc2)c1OCc1ccccc1Cl` [MLS000580486], for which the concentration for a half-maximal effect (EC50) under setting [1] is 6.13 µM.

`COc1cc2nc(=S)[nH]c(NCCCOC(C)C)c2cc1OC`: under setting [1], the EC50 was determined as 9 µM.

In turn, `COc1ccc2c3c(cccc13)N(C)N=C2C` [MLS000554700] had an EC50 of 1.56 µM.

Consider `O=C1c2ccccc2-c2onc3ccc(NCc4ccco4)c1c23` [MLS000080234], for which the concentration giving a half-maximal response (EC50) is 8.37 µM.

For the compound `COc1cc(C2Nc3cccc4cccc(c34)N2)cc(OC)c1O` [4-(2,3-dihydro-1H-perimidin-2-yl)-2,6-dimethoxyphenol], the EC50 was determined as 3.25 µM.

Turning to `Oc1ccc(NCc2ccccc2OCc2ccccc2)cc1` [SMR000231540], under setting [1], the EC50 turned out to be 2.98 µM.

Under setting [1], `COC(=O)c1c(C(=O)OC)c2cccc3cc(-c4ccccc4)c4ccc1c4n32` [SMR000161417] registered an EC50 of 1.31 µM.

`O=C1c2ccccc2-c2onc3ccc(NCCCn4ccnc4)c1c23` [SMR000044769] had a half-maximal effective concentration (EC50) of 1.11 µM.

`O=C(c1ccccc1)c1ccc2nc(-c3ccco3)c(-c3ccco3)nc2c1`: the concentration for a half-maximal effect (EC50) under setting [1] was determined as 14.8 µM.

As for `O=C(NCc1ccccn1)c1ccc2nc(-c3ccco3)c(-c3ccco3)nc2c1` [2,3-di-2-furyl-N-(pyridin-2-ylmethyl)quinoxaline-6-carboxamide], the response was half-maximal at 7.22 µM (EC50).

Under setting [1], `COC(=O)CSc1ncnc2c1sc1nc(-c3ccco3)c3c(c12)CC(C)(C)OC3` [MLS000039339] yielded an EC50 of 34 µM.

Under setting [1], `CCN(CC)c1ccc(NC2=C(Cl)C(=O)c3ccccc3C2=O)cc1` [2-chloro-3-{[4-(diethylamino)phenyl]amino}naphthoquinone] displayed a concentration giving a half-maximal response (EC50) of 0.17 µM.

`CCN1/C(=C/C(C)=C/c2sc3ccccc3[n+]2CC)Sc2ccccc21` [SMR000354813] yielded an EC50 of 37.5 µM.

As to `CCC(/C=C1\Sc2ccc(OC)cc2N1CCO)=C\c1sc2ccc(OC)cc2[n+]1CCO`, the midpoint of the response, the EC50, lay at 22.1 µM.

As to `COc1ccc(CCNC(=O)c2ccc3nc(-c4ccco4)c(-c4ccco4)nc3c2)cc1OC` [N-[2-(3,4-dimethoxyphenyl)ethyl]-2,3-di-2-furylquinoxaline-6-carboxamide], the midpoint of the response under setting [1], the EC50, lay at 12.2 µM.

As to `CCOc1cc(C2Nc3cccc4cccc(c34)N2)ccc1O` [MLS000068595], the EC50 under setting [1] worked out at 31.7 µM.

For `Cc1ccc(CNc2ccc3c(c2)OCO3)c(C)c1` [1,3-benzodioxol-5-yl(2,4-dimethylbenzyl)amine], it took 44.2 µM to reach a half-maximal effect under setting [1] (EC50).

As for `COc1ccc(-n2c(=O)c3ccccc3c3ccccc3c2=O)c(OC)c1`, the response under setting [1] was half-maximal at 16.3 µM (EC50).

`CN(N=C/C=C/c1ccccc1)C1=NS(=O)(=O)c2ccccc21` [(1E,2E)-3-phenylacrylaldehyde (1,1-dioxido-1,2-benzisothiazol-3-yl)(methyl)hydrazone] gave an EC50 under setting [1] of 3.67 µM.

In turn, `Cc1ccc(-c2cc(-c3ccc(C)o3)nc(N)c2C#N)cc1` [2-amino-6-(5-methylfuran-2-yl)-4-(4-methylphenyl)pyridine-3-carbonitrile] had a concentration for a half-maximal effect (EC50) under setting [1] of 18.5 µM.

The compound `CCOC(=O)c1ccc(Nc2nc(C(=O)OCC)nc3ccccc23)cc1` had an EC50 under setting [1] of 2.67 µM.

In turn, `CCOCCCNc1nc(S)nc2cc(OC)c(OC)cc12` came in with a 50% effective concentration (EC50) under setting [1] of 2.2 µM.

As for `CC1N(C)c2cccc3cccc(c23)N1C` [1,2,3-trimethyl-2,3-dihydro-1H-perimidine], the EC50 under setting [1] came to 2.26 µM.

Take `Nc1c(C(=O)NCc2ccco2)sc2nc3c(cc12)C(=O)CCC3` [SMR000072940]: under setting [1], the EC50 was determined as 31.8 µM.

As for `Cc1ccc(/C=C/C2=Cc3c(sc(NC(=O)CSc4nnc(N)[nH]4)c3C#N)C(C)(C)C2)o1` [2-[(5-azanyl-1H-1,2,4-triazol-3-yl)sulfanyl]-N-[3-cyano-7,7-dimethyl-5-[(E)-2-(5-methylfuran-2-yl)ethenyl]-6H-1-benzothiophen-2-yl]ethanamide], under setting [1], the midpoint of the response, the EC50, lay at 6.38 µM.

Under setting [1], `O=C(/C=C/c1ccc(-c2ccccc2)o1)c1ccccc1` [(E)-1-phenyl-3-(5-phenyl-2-furanyl)-2-propen-1-one] registered an EC50 of 13.9 µM.

`O=C(NCc1ccccc1)c1ccc2nc(-c3ccco3)c(-c3ccco3)nc2c1` [2,3-bis(furan-2-yl)-N-(phenylmethyl)quinoxaline-6-carboxamide] had a concentration for a half-maximal effect (EC50) of 6.03 µM.

Compound `CC(=NNC(=O)c1cc(O)c(O)c(O)c1)c1ccc([N+](=O)[O-])cc1` [SMR000312589] had an EC50 of 4.03 µM.
